Data as given in patent US12520844B2 (Bayer Aktiengesellschaft, priority 2020, dated 2026).

Assay: Measurement of Log P values by HPLC on reversed phase columns (EEC directive 79/831 Annex V.A8)
Type: physicochemical
Procedure: Measurement of Log P values as provided herein was performed according to EEC directive 79/831 Annex V.A8 by HPLC (High Performance Liquid Chromatography) on reversed phase columns with the following methods: • ^[a] Log P value is determined by measurement of LC-UV, in an acidic range, with 0.1% formic acid in water and acetonitrile as eluent (linear gradient from 10% acetonitrile to 95% acetonitrile). • ^[b] Log P value is determined by measurement of LC-UV, in a neutral range, with 0.001 molar ammonium acetate solution in water and acetonitrile as eluent (linear gradient from 10% acetonitrile to 95% acetonitrile). • ^[c] Log P value is determined by measurement of LC-UV, in an acidic range, with 0.1% phosphoric acid and acetonitrile as eluent (linear gradient from 10% acetonitrile to 95% acetonitrile).
If more than one Log P value is available within the same method, all the values are given and separated by “+”.
Calibration was done with straight-chain alkan2-ones (with 3 to 16 carbon atoms) with known Log P values (measurement of Log P values using retention times with linear interpolation between successive alkanones). Lambda-max-values were determined using UV-spectra from 200 nm to 400 nm and the peak values of the chromatographic signals

SMILES | LogP
CCOc1cccc(Oc2cnc(C)nc2C(=O)NCC(F)(F)c2ccc(C)cc2C)c1 [Compound I-047] | 4.13^[a]
Cc1ccc(C(F)=CNC(=O)c2nc(C3CC3)nnc2Oc2cccc(Br)c2F)c(C)c1 [Compound I-048] | 5.04^[a]
Cc1ccc(C(F)(F)CNC(=O)c2nc(C)ncc2Oc2ccc(C(F)(F)F)cc2)c(C)c1 [Compound I-049] | 4.39^[a]
Cc1ccc(C(F)(F)CNC(=O)c2nc(C3CC3)nnc2Oc2cccc(C)c2F)c(C)c1 [Compound I-050] | 4.47^[a]
Cc1ccc(/C(F)=C\NC(=O)c2nc(C3CC3)nnc2Oc2cccc(C)c2F)c(C)c1 [Compound I-051] | 5.16^[a]
Cc1cnn(CCNC(=O)c2nc(C)ncc2Oc2cccc(C3CC3)c2F)c1 [Compound I-052] | 2.59^[a]
Cc1ccc2c(c1)CCCC2NC(=O)c1nc(C)ncc1Oc1cccc(C2CC2)c1F (stereo not drawn) [Compound I-053] | 4.49^[a]
Cc1ncc(Oc2cccc(C3CC3)c2F)c(C(=O)NCCOc2ccc(Cl)cc2)n1 [Compound I-054] | 3.93^[a]
Cc1ccc2c(c1)C(NC(=O)c1nc(C)ncc1Oc1cccc(C3CC3)c1F)CC(C)(C)O2 (stereo not drawn) [Compound I-055] | 4.42^[a]
Cc1ccc(C(F)(F)CNC(=O)c2nc(C)ncc2Oc2cccc(C3COC3)c2)c(C)c1 [Compound I-056] | 3.32^[a]
Cc1ncc(Oc2cccc(C3CC3)c2F)c(C(=O)NC2CCS(=O)(=O)c3ccccc32)n1 (stereo not drawn) [Compound I-057] | 2.78^[a]
Cc1ccc(C(F)(F)CNC(=O)c2nc(C)ncc2Oc2ccccc2)c(C)c1 [Compound I-058] | 3.71^[a]
COCCOc1cccc(Oc2cnc(C)nc2C(=O)NCC(F)(F)c2ccc(C)cc2C)c1 [Compound I-059] | 3.66^[a]
COc1ccc2c(c1)C(NC(=O)c1nc(C)ncc1Oc1cccc(C3CC3)c1F)C(OC)CC2 (stereo not drawn) [Compound I-060] | 3.72^[a]
COc1cccc(Oc2nnc(C3CC3)nc2C(=O)N/C=C(\F)c2ccc(C)cc2C)c1 [Compound I-061] | 4.44^[a]
Cc1ccc(C(F)(F)CNC(=O)c2nc(C3CC3)nnc2Oc2cccc(Br)c2)c(C)c1 [Compound I-062] | 4.59^[a]
Cc1ncc(Oc2cccc(C3CC3)c2F)c(C(=O)NCCc2cccs2)n1 [Compound I-064] | 3.43^[a]
CCC(=O)N(CCc1ccccc1)C(=O)c1nc(C)ncc1Oc1cccc(C2CC2)c1F [Compound I-066] | 4.52^[a]
COc1ccc(CCN(C(C)=O)C(=O)c2nc(C)ncc2Oc2cccc(C3CC3)c2F)cc1 [Compound I-067] | 4.01^[a]
Cc1ccc(C(F)(F)CNC(=O)c2nc(C)ncc2Oc2cncc(C(F)(F)F)c2)c(C)c1 [Compound I-068] | 3.73^[a]
Cc1ncc(Oc2cccc(C3CC3)c2F)c(C(=O)NC2CCCc3cc(Br)ccc32)n1 (stereo not drawn) [Compound I-069] | 4.71^[a]
Cc1ncc(Oc2cccc(C3CC3)c2F)c(C(=O)NCC(F)(F)c2cc(Cl)sc2Cl)n1 [Compound I-070] | 4.69^[a]
CCc1cccc(Oc2cnc(C)nc2C(=O)NCC(F)(F)c2ccc(C)cc2C)c1 [Compound I-071] | 4.42^[a]
COCc1cccc(Oc2cnc(C)nc2C(=O)NCC(F)(F)c2ccc(C)cc2C)c1 [Compound I-072] | 3.67^[a]
C#Cc1cccc(Oc2nnc(C3CC3)nc2C(=O)NCC(F)(F)c2ccc(C)cc2C)c1 [Compound I-073] | 4.26^[a]
Cc1cc(C)n(CCNC(=O)c2nc(C)ncc2Oc2cccc(C3CC3)c2F)n1 [Compound I-075] | 2.60^[a]
Cc1ncc(Oc2cccc(C3CC3)c2F)c(C(=O)NC(C)c2ccc(Cl)s2)n1 (stereo not drawn) [Compound I-076] | 4.09^[a]
Cc1ncc(Oc2cccc(C3CC3)c2F)c(C(=O)NCCc2ccc3c(c2)OCCO3)n1 [Compound I-077] | 3.30^[a]
Cc1ncc(Oc2cccc(C3CC3)c2F)c(C(=O)NC2CCCc3sc(C4CC4)nc32)n1 (stereo not drawn) [Compound I-078] | 3.81^[a]
Cc1ccc(C(F)(F)CNC(=O)c2nc(C)ncc2Oc2cccc(C#N)c2)c(C)c1 [Compound I-079] | 3.53^[a]
